# According to patent US20250263416A1, “SPPL2a INHIBITORS” (Incyte Corporation, priority 2024, published 2025):
# “Also recorded” adds a separate entry of the source.
# What was measured:
# [1] = In vivo epimerization and PK, statements covering all three preclinical models; design: species or system Sprague Dawley rats, beagle dogs, cynomolgus monkeys
# Method: These factors may lead to accumulation and potenial toxicity. The effect on epimerization by substitution at the chiral carbon was tested by comparing Example A, Example 1, and Example 29 in the following preclinical in vivo pharmacokinetic models: Sprague Dawley rats, beagle dogs, and cynomolgus monkeys.
# Two groups of male Sprague Dawley rats (n=3 each) received either a single 10 mg/kg PO dose of Example A or Example 1 in a vehicle consisting of 0.5% methylcellulose in water. Blood samples were collected at 0.25, 0.5, 1, 2, 4, and 6 hours postdose.
# Male Sprague Dawley rats (n=3 each) received a single 3 mg/kg PO dose of Example 29 in a vehicle consisting of 5% dimethylacetamide (DMAC) in 50 mM citrate buffer w/0.5% methylcellulose. Blood samples were collected at predose, 0.25, 0.5, 1, 2, 4, 6, 8, 12, and 24 hours postdose.
# (§1) Three groups of male cynomolgus monkeys (n=2 each) received either a single 3 mg/kg PO dose of Example A, Example 1, or Example 29 in a vehicle consisting of 5% dimethylacetamide (DMAC) in 50 mM citrate buffer w/0.5% methylcellulose. Blood samples were collected at predose, 0.25, 0.5, 1, 2, 3, 4, 6, 8, 12, and 24 hours postdose.
# as §1, with “beagle dogs” for “cynomolgus monkeys”, “12, 24” for “12,”, “48” for “24”
# All blood samples were collected using EDTA as the anticoagulant and centrifuged to obtain plasma. Plasma concentrations of Example A, Example 1, and their respective diastereomers were determined under non-GLP conditions using standard reverse phase LC-MS/MS bioanalytical methods. The individual plasma concentration-time data was used to determine the area under the curve (AUC) values using GraphPad Prism (v9.3.1).
# MoDCs = test: DC-maturation assay (monocyte-derived dendritic cells from human PBMCs); type: cell-based; conditions: 24 h
# Method: Dendritic cells are crucial players in the antigen presentation process and inflammation. […] To validate the functional relevance of SPPL2a inhibitor, a DC-maturation assay was utilized. Human PBMCs were isolated from fresh blood using Histoplaque gradients and plated overnight at 37° C. to allow monocytes to adhere. Non-adherent cells were washed off the following day and DC-differentiation media containing GM-CSF and IL-4 was added and incubated for 5 d. Immature MoDCs were separated and washed. A cocktail of maturation media with SPPL2a inhibitor (at indicated concentrations) was added to the wells and cells were incubated for 24 h. Supernatants were collected and processed to measure TNFα and IL-12 by ELISA. All data is presented as mean+SEM. For comparison of more than two groups, ANOVA was used. All statistical analysis was performed using GraphPad Prism™ 10.
# human SPPL2a = molecular target: T1, human SPPL2a (Homo sapiens, UniProt Q8TCT8); test: Western blot assay of TNFα-GFP cleavage in U2OS cells expressing human SPPL2a; type: cell-based; conditions: SPPL2a-U2OS reporter cells, 24 h
# T1 construct: expressed in transfected cells; host or cells: U2OS (SPPL2a reporter cell line)
# T1 sequence (Q8TCT8 26-520): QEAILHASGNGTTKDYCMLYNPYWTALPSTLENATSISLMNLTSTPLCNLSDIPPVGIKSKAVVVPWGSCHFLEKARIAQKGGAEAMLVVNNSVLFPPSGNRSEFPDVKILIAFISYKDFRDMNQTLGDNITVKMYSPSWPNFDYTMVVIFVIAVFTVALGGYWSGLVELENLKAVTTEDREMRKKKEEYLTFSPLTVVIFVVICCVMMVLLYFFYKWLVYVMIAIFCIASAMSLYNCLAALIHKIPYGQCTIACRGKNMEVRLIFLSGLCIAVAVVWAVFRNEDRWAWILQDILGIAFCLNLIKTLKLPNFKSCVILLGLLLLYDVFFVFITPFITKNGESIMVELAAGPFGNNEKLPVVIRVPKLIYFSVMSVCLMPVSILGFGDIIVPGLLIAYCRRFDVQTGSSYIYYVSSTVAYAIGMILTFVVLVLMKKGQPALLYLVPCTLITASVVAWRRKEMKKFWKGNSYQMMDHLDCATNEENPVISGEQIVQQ
# Method: To confirm the cleavage of TNF-α in the U2OS cells that express human SPPL2a, a western blot assay was performed. The same cell line used for the imaging assays were used; these cells express human SPPL2a constitutively and an eGFP-labelled TNFα (aa 1-76) NTF substrate under a doxycycline promotor. In the presence of SPPL2a activity, TNFα-GFP is cleaved at the NTF, resulting in a single 54-56 kDa band (lower MW). If SPPL2a activity is inhibited, TNFα GFP processing is abrogated resulting in a higher molecular weight band (60-62 kDa; complete inhibition) and or both 54-56 kDa and 60-62 kDa bands (incomplete inhibition, smeared appearance) on the blot. Both Example 1 and Example A were added at indicated concentrations, and cells were incubated for 24 h with the inhibitors. Total cell lysated were prepared in ice cold-1X RIPA buffer containing protease inhibitor cocktail (AKR-190, Cell BioLabs). Lysates were collected and quantified for the total protein on NanoDrop using BCA kit (23227, Thermo Scientific). […] To detect cleaved and un-cleaved TNFα-GFP fragments, anti-GFP antibody (AF4240, R&D Biosystems) was used as a primary antibody and detected using anti-goat detection module (DM-006, ProteinSimple) according to the manufacturer's protocol. Data was analyzed using ProteinSimple compass software.
# [2] = test system: Collagen-Induced Arthritis (CIA) mouse model; test: Collagen-induced arthritis (CIA) mouse model; type: in vivo, DBA-1 mice; conditions: 50 mg/kg dose, compared to the vehicle
# Excerpt: Female DBA-1 mice (8-9 weeks old) were used in the CIA mouse model. This model is widely used to evaluate efficacy of immunomodulatory drugs on autoimmune diseases, such as arthritis. DBA/1 mice develop collagen-induced arthritis (CIA) after immunization with bovine type II collagen emulsified in complete Freund's adjuvant (CFA), followed by a booster dose 21 days later. Both the immunizations were given subcutaneously, approximately 25 mm from the base of the tail on opposite sides. Immunizations were performed under a short duration isoflurane anesthesia. Mice were evaluated for the disease progression up to 45 days. […] Statistical significance was determined using Two-way ANOVA with multiple comparison tests to compare all groups to the vehicle.
smiles,measurement,setting,value
"CNC(=O)c1nc(C)c(C(=O)NC[C@@H](C)C(=O)N[C@@H]2C(=O)N3CCCN3Cc3ccccc32)s1 [Example A, N^2,4-dimethyl-N^5—((R)-2-methyl-3-oxo-3-(((S)-11-oxo-2,3,10,11-tetrahydro-1H,5H-benzo[d]pyrazolo[1,2-a][1,2]diazepin-10-yl)amino)propyl)thiazole-2,5-dicarboxamide]",in vivo epimerization at the chiral carbon in the 7-membered ring,"[1]; rat, monkey and dog models, PO",exhibits epimerization in vivo; also recorded: observed in all three models
same,exposures and PK (other than epimerization) across species,"[1]; rats, monkeys, dogs",consistent
same,IL-12 secretion,"MoDCs; MoDC supernatants, ELISA",significantly decreased
same,TNFα secretion,"MoDCs; MoDC supernatants, ELISA",significantly decreased
same,MoDC maturation,MoDCs; compared to the stimulation only condition,significantly decreased
same,TNFα-GFP cleavage inhibition (SPPL2a activity inhibition),human SPPL2a,SPPL2a activity inhibition; also recorded: Comparable and significant TNFα-GFP cleavage inhibition
same,clinical signs of CIA,[2],significantly reduced
